These results are taken from US9315519B2, “Guanidine substituted tetrahydroisoquinoline compounds as factor XIa inhibitors” (BRISTOL-MYERS SQUIBB COMPANY, priority 2012, dated 2016).

In the test the target is purified human Factor XIa (Homo sapiens (Human), UniProt P03951). Kind of test: Factor XIa enzyme inhibition assay (chromogenic substrate S-2366). The format is biochemical. Conditions: substrate S-2366, pH 7.4. As for the experimental part:
The effectiveness of compounds of the present invention as inhibitors of the coagulation factors XIa, VIIa, IXa, Xa, XIIa, plasma kallikrein or thrombin, can be determined using a relevant purified serine protease, respectively, and an appropriate synthetic substrate. The rate of hydrolysis of the chromogenic or fluorogenic substrate by the relevant serine protease was measured both in the absence and presence of compounds of the present invention. […] A decrease in the rate of absorbance or fluorescence change in the presence of inhibitor is indicative of enzyme inhibition. Such methods are known to one skilled in the art. The results of this assay are expressed as the inhibitory constant, Ki.
Factor XIa determinations were made in 50 mM HEPES buffer at pH 7.4 containing 145 mM NaCl, 5 mM KCl, and 0.1% PEG 8000 (polyethylene glycol; JT Baker or Fisher Scientific). Determinations were made using purified human Factor XIa at a final concentration of 75-200 pM (Haematologic Technologies) and the synthetic substrate S-2366 (pyroGlu-Pro-Arg-pNA; CHROMOGENIX® or AnaSpec) at a concentration of 0.0002-0.001 M.
The Michaelis constant, Km, for substrate hydrolysis by each protease, was determined at 25° C. using the method of Lineweaver and Burk. Values of Ki were determined by allowing the protease to react with the substrate in the presence of the inhibitor. Reactions were allowed to go for periods of 20-180 minutes (depending on the protease) and the velocities (rate of absorbance or fluorescence change versus time) were measured. The following relationships were used to calculate Ki values: (vo−vs)/vs=I/(Ki(1+S/Km)) for a competitive inhibitor with one binding site; or vs/vo=A+((B−A)/1+((IC50/(I)n))); and Ki=IC50/(1+S/Km) for a competitive inhibitor where: […]

Counter-ions that a name gives are not always drawn. Some results are limits rather than exact numbers.

purified human Factor XIa, sequence (P03951 388-625): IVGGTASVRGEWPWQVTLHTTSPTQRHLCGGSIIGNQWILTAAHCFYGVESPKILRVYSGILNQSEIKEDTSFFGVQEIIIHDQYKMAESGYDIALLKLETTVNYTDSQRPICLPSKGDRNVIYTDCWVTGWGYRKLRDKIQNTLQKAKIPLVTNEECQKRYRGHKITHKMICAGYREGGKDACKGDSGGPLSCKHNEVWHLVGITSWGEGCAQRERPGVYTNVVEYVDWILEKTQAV
purified human Factor XIa, sequence (P03951 19-387 partner): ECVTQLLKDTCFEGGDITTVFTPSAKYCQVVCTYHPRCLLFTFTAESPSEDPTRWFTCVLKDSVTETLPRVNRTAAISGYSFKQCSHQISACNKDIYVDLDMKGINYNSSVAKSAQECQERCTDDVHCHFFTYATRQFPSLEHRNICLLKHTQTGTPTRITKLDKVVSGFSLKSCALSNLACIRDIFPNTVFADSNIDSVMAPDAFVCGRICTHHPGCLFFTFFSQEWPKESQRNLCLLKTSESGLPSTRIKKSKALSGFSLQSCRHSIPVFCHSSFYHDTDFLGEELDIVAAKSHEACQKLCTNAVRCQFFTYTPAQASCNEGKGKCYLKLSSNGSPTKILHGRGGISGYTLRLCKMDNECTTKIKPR

The term Ki denotes a dissociation constant, usually derived from enzyme kinetics or from competition with a known ligand. With `N=C(N)N1CCc2nc(C(=O)N3CCc4c(Br)cccc4C3C(=O)Nc3ccc(C(=O)O)cc3)sc2C1` (stereo not drawn) [Example 1, 4-(5-bromo-2-(5-carbamimidoyl-4,5,6,7-tetrahydrothiazolo[5,4-c]pyridine-2-carbonyl)-1,2,3,4-tetrahydroisoquinoline-1-carboxamido)benzoic acid, TFA Salt], the Ki was 90.6 nM. The value for `COC1CCN(c2cccc3c2CCN(C(=O)c2nc4c(s2)CN(C(=N)N)CC4)C3C(=O)Nc2ccc(C(=O)O)cc2)CC1` (stereo not drawn) [Example 5, 4-(2-(5-carbamimidoyl-4,5,6,7-tetrahydrothiazolo[5,4-c]pyridine-2-carbonyl)-5-(4-methoxypiperidin-1-yl)-1,2,3,4-tetrahydroisoquinoline-1-carboxamido)benzoic acid, TFA salt] was less than 5 nM; that for `COC1CCN(c2cccc3c2CCN(C(=O)C2CC4(CCNCC4)C2)C3C(=O)Nc2ccc(C(=O)O)cc2)CC1` (stereo not drawn) [Example 12, 4-(5-(4-methoxypiperidin-1-yl)-2-(7-azaspiro[3.5]nonane-2-carbonyl)-1,2,3,4-tetrahydroisoquinoline-1-carboxamido)benzoic acid, bis TFA Salt] was 190 nM; that for `CN1CCN(c2cccc3c2CCN(C(=O)C2CC4(CCN(C(=N)N)CC4)C2)[C@@H]3C(=O)Nc2ccc(C(=O)O)cc2)C(=O)C1` [Example 18, (S)-4-(2-(7-carbamimidoyl-7-azaspiro[3.5]nonane-2-carbonyl)-5-(4-methyl-2-oxopiperazin-1-yl)-1,2,3,4-tetrahydroisoquinoline-1-carboxamido)benzoic acid, bis HCl Salt] was less than 5 nM. With `CN1CCN(c2cccc3c2CCN(C(=O)CC2CCN(C(=N)N)CC2)[C@H]3C(=O)Nc2ccc(C(=O)O)cc2)C(=O)C1` [Example 19, (R)-4-(2-(2-(1-carbamimidoylpiperidin-4-yl)acetyl)-5-(4-methyl-2-oxopiperazin-1-yl)-1,2,3,4-tetrahydroisoquinoline-1-carboxamido)benzoic acid, bis-HCl Salt], the Ki is 382 nM. The value for `COC1CCN(c2cccc3c2CCN(C(=O)C2CCN(C(=N)N)CC2)C3C(=O)Nc2ccc(C(=O)O)cc2)CC1` (stereo not drawn) [Example 24, 4-(2-(1-carbamimidoylpiperidine-4-carbonyl)-5-(4-methoxypiperidin-1-yl)-1,2,3,4-tetrahydroisoquinoline-1-carboxamido)benzoic acid, bis-TFA salt] was 5.68 nM.
